Data from patent US20100311729A1, “Substituted imidazopyridazines and pyrrolopyrimidines as lipid kinase inhibitors” (priority 2007, published 2010).

Legend:
Format in all cases: biochemical
PI3K alfa = molecular target: T1, PI3K alfa (Homo sapiens, UniProt P42336); test: PI3 kinase assay (Kinase-Glo luminescence), PI3K alfa; details: Enzymatic Data; read-out: PI3K alfa IC50 [umol]
T1 construct: for the p110-a subunit (with a deletion of the first 20 amino acids); His tag (C); made in house; host or cells: baculovirus; Tn5 (Trichoplusia ni) or TiniPro insect cells
T1 sequence (P42336 with tags, fused parts or gaps limits assumed): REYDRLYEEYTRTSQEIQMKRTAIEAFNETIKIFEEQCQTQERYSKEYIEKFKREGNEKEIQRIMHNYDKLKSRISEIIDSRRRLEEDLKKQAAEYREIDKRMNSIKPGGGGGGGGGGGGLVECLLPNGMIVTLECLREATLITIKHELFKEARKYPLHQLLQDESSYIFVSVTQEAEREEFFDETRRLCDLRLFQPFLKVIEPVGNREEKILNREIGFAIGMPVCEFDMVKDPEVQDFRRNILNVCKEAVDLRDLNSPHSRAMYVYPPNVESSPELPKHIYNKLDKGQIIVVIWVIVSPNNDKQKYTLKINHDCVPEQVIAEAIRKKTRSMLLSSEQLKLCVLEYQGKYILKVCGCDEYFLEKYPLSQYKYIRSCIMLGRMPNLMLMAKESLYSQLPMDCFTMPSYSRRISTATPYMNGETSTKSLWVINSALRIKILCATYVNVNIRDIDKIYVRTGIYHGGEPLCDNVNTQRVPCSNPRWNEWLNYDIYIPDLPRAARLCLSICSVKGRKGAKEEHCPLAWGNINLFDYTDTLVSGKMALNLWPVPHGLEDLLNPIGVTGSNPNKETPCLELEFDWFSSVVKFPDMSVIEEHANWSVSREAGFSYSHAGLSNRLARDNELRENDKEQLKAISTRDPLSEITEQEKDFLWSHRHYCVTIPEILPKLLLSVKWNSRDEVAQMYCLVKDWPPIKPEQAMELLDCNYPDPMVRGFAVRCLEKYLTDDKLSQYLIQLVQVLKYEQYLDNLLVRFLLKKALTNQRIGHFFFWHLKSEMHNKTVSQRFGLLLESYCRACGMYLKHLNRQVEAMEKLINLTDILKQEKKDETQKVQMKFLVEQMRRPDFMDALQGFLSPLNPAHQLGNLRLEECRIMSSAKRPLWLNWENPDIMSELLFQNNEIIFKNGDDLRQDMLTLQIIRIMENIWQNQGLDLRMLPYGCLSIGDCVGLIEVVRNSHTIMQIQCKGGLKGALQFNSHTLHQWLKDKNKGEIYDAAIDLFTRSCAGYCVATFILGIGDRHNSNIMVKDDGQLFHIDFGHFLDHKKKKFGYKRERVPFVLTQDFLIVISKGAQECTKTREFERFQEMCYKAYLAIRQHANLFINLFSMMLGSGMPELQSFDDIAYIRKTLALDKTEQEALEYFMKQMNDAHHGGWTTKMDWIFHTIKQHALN
Experimental: (§1) In a more preferred assay, the kinase reaction is performed in a final volume of 10 μL per well of a low volume non binding CORNING, 384 well black plate (Cat. No. #3676). The final concentrations of ATP and phosphatidyl inositol (PI) in the assay are 1 μM and 10 μg/mL respectively. The reaction is started by the addition of ATP.
(§2) The components of the assay are added per well as follows:
(§3) 50 nL test compounds in 90% DMSO per well, in columns 1-20, 8 concentrations (1/3 and 1/3.33 serial dilution step) in single. • Low control: 50 nL of 90% DMSO in half the wells of columns 23-24 (0.45% in final). • High control: 50 nL of reference compound (e.g. compound of Example 7 in WO 2006/122806, incorporated by reference hereinin that regard) in the other half of columns 23-24 (2.5 μM in final). • Standard: 50 nL of reference compound as just mentioned diluted as the test compounds in columns 21-22 • 20 mL ‘buffer’ are prepared per assay: • 200 μL of 1M TRIS HCl pH7.5 (10 mM in final) • 60 μL of 1M MgCl2 (3 mM in final) • 500 μL of 2M NaCl (50 mM in final) • 100 μL of 10% CHAPS (0.05% in final) • 200 μL of 100 mM DTT (1 mM in final) • 18.94 mL of nanopure water • 10 mL ‘PI’ are prepared per assay: • 200 μL of 1 mg/ml L-alpha-Phosphatidylinositol (Liver Bovine, Avanti Polar Lipids Cat. No. 840042C MW=909.12) prepared in 3% OctylGlucoside (10 μg/ml in final) • 9.8 mL of ‘buffer’ • 10 mL ‘ATP’ are prepared per assay: • 6.7 μL of 3 mM stock of ATP giving a final concentration of 1 μM per well • 10 mL of ‘buffer’ • 2.5 mL of each PI3K construct are prepared per assay in ‘PI’ with the following final concentration : • 10 nM PI3K alfa B-1075 • 25 nM beta BV-949 • 10 nM delta BV-1060 • 150 nM gamma BV-950 • 5 μL of ‘PI/PI3K’ are added per well. • 5 μl ‘ATP’ are added per well to start the reaction. • The plates are then incubated at room temperature for 60 minutes (alfa, beta, delta) or 120 minutes (gamma). • The reaction is terminated by the addition of 10 μL Kinase-Glo (Promega Cat. No. #6714). • The assay plates are read after 10 minutes in Synergy 2 reader (BioTek, Vermont USA) with an integration time of 100 milliseconds and sensitivity set to 191. • Output : The High control is around 60'000 counts and the Low control is 30'000 or lower • This luminescence assay gives a useful Z′ ratio between 0.4 and 0.7
(§4) […] is determined by a four parameter curve fitting routine that comes aloneg with “excel fit”. A 4 Parameter logistic equation is used to calculate IC50 values (IDBS XLfit) of the percentage inhibition of each compound at 8 concentrations (usually 10, 3.0, 1.0, 0.3, 0.1, 0.030, 0.010 and […]). Alternatively, IC50 values are calculated using idbsXLfit model 204, which is a 4 parameter logistic model.
(§5) Testing with the following kinases in the test system mentioned above, with the kinases given in the following tables, the following IC 50 data can be obtained: […]

PI3K beta = molecular target: T2, PI3K beta (Homo sapiens, UniProt P42338); test: PI3 kinase assay (Kinase-Glo luminescence), PI3K beta; details: Enzymatic Data; read-out: PI3K beta IC50 [umol]
T2 construct: for the full-length p110-b subunit are generated and fused by overlapping PCR; His tag (C); made in house; host or cells: baculovirus; Tn5 (Trichoplusia ni) or TiniPro insect cells
T2 sequence (P42338 with tags, fused parts or gaps limits assumed): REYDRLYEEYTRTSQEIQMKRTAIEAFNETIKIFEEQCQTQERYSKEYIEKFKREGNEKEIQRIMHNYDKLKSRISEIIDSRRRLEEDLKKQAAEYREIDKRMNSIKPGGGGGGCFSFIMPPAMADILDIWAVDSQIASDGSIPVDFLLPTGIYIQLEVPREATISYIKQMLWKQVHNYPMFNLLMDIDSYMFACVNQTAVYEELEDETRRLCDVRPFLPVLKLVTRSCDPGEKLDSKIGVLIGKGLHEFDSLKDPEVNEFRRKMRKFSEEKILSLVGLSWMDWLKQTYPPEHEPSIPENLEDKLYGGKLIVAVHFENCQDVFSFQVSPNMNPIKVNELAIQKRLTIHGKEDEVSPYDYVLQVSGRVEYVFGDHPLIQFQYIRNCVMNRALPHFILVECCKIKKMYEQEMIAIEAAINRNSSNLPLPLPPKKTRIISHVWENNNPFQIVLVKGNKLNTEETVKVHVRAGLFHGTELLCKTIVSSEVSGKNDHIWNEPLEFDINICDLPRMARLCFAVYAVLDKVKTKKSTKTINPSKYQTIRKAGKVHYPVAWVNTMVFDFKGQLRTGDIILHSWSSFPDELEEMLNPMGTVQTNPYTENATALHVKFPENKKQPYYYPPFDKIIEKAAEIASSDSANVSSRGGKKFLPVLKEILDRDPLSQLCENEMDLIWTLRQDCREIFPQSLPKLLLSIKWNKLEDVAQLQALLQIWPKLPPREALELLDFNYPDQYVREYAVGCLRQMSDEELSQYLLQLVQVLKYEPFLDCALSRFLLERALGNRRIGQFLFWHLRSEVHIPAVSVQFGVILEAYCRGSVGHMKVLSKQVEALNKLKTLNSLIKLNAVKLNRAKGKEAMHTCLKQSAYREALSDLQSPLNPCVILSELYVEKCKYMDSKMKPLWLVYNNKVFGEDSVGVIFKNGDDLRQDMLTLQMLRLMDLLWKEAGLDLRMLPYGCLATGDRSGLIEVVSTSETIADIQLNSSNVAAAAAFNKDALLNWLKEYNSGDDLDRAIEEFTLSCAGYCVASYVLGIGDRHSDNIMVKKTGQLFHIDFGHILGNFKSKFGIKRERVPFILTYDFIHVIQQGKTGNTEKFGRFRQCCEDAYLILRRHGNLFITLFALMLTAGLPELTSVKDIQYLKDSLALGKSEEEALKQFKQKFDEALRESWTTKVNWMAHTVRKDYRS
Experimental: as §1, §2, §3, §4, §5

PI3K delta = molecular target: T3, PI3K delta (Homo sapiens, UniProt O00329); test: PI3 kinase assay (Kinase-Glo luminescence), PI3K delta; details: Enzymatic Data; read-out: PI3K delta IC50 [umol]
T3 construct: for the full-length p110-d subunit are generated and fused by overlapping PCR; His tag (C); made in house; host or cells: baculovirus; Tn5 (Trichoplusia ni) or TiniPro insect cells
T3 sequence (O00329 with tags, fused parts or gaps limits assumed): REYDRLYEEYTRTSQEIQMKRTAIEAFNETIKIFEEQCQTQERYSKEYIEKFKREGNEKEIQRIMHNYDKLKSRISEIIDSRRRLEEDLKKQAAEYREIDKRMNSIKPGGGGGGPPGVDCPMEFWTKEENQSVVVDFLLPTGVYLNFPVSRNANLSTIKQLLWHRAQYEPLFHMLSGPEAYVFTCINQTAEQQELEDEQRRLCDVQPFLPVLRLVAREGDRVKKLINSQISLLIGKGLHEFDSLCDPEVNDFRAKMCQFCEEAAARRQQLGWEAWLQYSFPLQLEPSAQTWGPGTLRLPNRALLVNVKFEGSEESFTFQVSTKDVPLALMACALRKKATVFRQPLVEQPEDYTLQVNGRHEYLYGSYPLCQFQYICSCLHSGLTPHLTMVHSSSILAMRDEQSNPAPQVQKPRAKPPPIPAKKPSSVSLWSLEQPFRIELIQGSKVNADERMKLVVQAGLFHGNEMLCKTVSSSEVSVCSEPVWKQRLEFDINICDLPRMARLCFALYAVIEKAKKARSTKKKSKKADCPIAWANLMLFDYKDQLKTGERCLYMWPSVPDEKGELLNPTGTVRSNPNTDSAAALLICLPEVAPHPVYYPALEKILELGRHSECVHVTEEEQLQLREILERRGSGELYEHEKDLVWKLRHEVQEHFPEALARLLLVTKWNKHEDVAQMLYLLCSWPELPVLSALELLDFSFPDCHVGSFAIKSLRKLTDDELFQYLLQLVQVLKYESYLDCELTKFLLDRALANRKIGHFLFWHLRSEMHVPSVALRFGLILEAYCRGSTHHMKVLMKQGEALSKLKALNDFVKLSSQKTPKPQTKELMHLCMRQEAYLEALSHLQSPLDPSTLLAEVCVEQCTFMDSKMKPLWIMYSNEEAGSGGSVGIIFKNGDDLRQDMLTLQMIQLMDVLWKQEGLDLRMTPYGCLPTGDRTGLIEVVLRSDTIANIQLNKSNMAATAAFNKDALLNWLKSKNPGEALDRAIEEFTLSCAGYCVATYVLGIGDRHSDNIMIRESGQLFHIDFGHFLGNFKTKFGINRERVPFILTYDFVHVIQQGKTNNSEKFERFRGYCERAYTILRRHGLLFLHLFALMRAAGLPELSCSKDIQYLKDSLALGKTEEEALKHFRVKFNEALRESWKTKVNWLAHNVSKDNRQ
Experimental: as §1, §2, §3, §4, §5

PI3K gamma = molecular target: T4, PI3K gamma (Homo sapiens, UniProt P48736); test: PI3 kinase assay (Kinase-Glo luminescence), PI3K gamma; details: Enzymatic Data; read-out: PI3K gamma IC50 [umol]
T4 construct: PI3Kγ BV-950 p110g(D144aa)-C-Term His Tag; His tag (C); made in house; host or cells: construct from the Roger Williams lab (MRC LMB) in pVL1393; baculovirus; Tn5 (Trichoplusia ni) or TiniPro insect cells
T4 sequence (P48736 144-1102 limits assumed): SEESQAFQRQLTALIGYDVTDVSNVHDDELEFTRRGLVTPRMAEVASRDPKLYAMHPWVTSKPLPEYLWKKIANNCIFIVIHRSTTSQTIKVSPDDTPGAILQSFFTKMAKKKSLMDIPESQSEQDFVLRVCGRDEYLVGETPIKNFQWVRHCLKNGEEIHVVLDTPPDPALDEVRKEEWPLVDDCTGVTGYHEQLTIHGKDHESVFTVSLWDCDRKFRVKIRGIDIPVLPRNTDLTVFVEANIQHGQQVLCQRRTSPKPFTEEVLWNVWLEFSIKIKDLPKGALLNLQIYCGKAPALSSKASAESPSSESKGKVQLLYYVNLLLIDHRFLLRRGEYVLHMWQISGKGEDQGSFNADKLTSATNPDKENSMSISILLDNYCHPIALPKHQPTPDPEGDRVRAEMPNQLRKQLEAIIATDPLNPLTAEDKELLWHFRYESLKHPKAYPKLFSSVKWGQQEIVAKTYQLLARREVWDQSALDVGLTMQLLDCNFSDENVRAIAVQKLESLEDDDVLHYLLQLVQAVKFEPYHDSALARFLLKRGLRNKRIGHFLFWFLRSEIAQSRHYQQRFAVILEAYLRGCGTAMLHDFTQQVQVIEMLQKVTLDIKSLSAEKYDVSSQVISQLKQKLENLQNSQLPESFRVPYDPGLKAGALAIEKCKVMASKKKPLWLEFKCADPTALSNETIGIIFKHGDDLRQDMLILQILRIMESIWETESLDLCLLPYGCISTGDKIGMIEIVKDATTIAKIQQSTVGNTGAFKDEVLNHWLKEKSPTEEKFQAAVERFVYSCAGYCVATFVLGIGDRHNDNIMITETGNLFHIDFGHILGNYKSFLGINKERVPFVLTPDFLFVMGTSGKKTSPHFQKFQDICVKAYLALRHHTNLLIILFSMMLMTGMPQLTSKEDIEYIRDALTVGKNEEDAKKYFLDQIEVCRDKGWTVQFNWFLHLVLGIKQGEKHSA
Experimental: as §1, §2, §4

Compound	IC50 (PI3K alfa)	IC50 (PI3K beta)	IC50 (PI3K delta)	IC50 (PI3K gamma)
Nc1ncc(-c2cnc3ccc(-c4ccc(OCC5(NC(=O)C6CC6)COC5)cc4)nn23)cc1C(F)(F)F [Example 146, Cyclopropanecarboxylic acid (3-{4-[3-(6-amino-5-trifluoromethyl-pyridin-3-yl)-imidazo[1,2-b]pyridazin-6-yl]-phenoxymethyl}-oxetan-3-yl)-amide]	54 nM	2540 nM	280 nM	1730 nM
COc1cc(-c2cnc3ccc(-c4cnc(N)c(C(F)(F)F)c4)nn23)ccc1C(=O)N1CCN(c2ccccn2)CC1 [Example 120, {4-[6-(6-Amino-5-trifluoro-methyl-pyridin-3-yl)-imidazo [1,2-b]pyridazin-3-yl]-2-methoxy-phenyl}-(4-pyridin-2-yl-piperazin-1-yl)-methanone]	16 nM	389 nM	25 nM	757 nM
Nc1ncc(-c2cnc3ccc(-c4ccc(C(=O)NCCN5CCOCC5)cc4)nn23)cc1C(F)(F)F [Example 122, 4-[3-(6-Amino-5-trifluoro-methyl-pyridin-3-yl)-imidazo [1,2-b]pyridazin-6-yl]-N-(2-morpholin-4-yl-ethyl)-benzamide]	43 nM	986 nM	199 nM	1400 nM
Nc1ncc(-c2ccc3ncc(-c4ccc(C(=O)NCCn5ccnc5)cc4F)n3n2)cc1C(F)(F)F [Example 156, 4-[6-(6-Amino-5-trifluoro-methyl-pyridin-3-yl)-imidazo [1,2-b]pyridazin-3-yl]-3-fluoro-N-(2-imidazol-1-yl-ethyl)-benzamide]	8 nM	73 nM	14 nM	400 nM
Nc1ncc(-c2ccc3ncc(-c4ccc(S(=O)(=O)NCCCN5CCOCC5)cc4)n3n2)cc1C(F)(F)F [Example 134, 4-[6-(6-Amino-5-trifluoro-methyl-pyridin-3-yl)-imidazo [1,2-b]pyridazin-3-yl]-N-(3-morpholin-4-yl-propyl)-benzene-sulfonamide]	71 nM	443 nM	79 nM	> 9100 nM
COc1cc(-c2ccc3ncc(-c4cnc(N)c(C(F)(F)F)c4)n3n2)ccc1OCCCN1CCNC1=O [Example 164, 1-(3-{4-[3-(6-Amino-5-trifluoro-methyl-pyridin-3-yl)-imidazo [1,2-b]pyridazin-6-yl]-2-methoxy-phenoxy}-propyl)-imidazolidin-2-one]	6 nM	154 nM	26 nM	453 nM
Nc1ncc(-c2ccc3ncc(-c4ccc(C(=O)O)c(F)c4)n3n2)cc1C(F)(F)F [Example 95, 4-[6-(6-Amino-5-trifluoro-methyl-pyridin-3-yl)-imidazo [1,2-b]pyridazin-3-yl]-2-fluoro-benzoic acid]	6 nM	59 nM	20 nM	928 nM
COc1cc(-c2ccc3ncc(-c4cnc(N)c(C(F)(F)F)c4)n3n2)ccc1OCCNC(=O)C1CC1 [Example 61, Cyclo-propane-carboxylic acid (2-{4-[3-(6-amino-5-trifIuoro-methyl-pyridin-3-yl)-imidazo [1,2-b)pyridazin-6-yl]-2-methoxy-phenoxy}-ethyl)-amide]	205 nM	1000 nM	428 nM	884 nM
Nc1ncc(-c2ccc3ncc(-c4ccc(C(=O)N5CCN(CCc6ccccn6)CC5)cc4)n3n2)cc1C(F)(F)F [Example 135]	46 nM	587 nM	59 nM	2010 nM
CC(=O)NCCCOc1ccc(-c2ccc3ncc(-c4cnc(N)c(C(F)(F)F)c4)n3n2)cc1 [Example 71, N-(3-{4-[3-(6-Amino-5-trifluoro-methyl-pyridin-3-yl)-imidazo [1,2-b]pyridazin-6-yl]-phenoxy}-propyl)-acetamide]	170 nM	2650 nM	739 nM	8510 nM
COc1cc(-c2ccc3ncc(-c4cnc(N)c(C(F)(F)F)c4)n3n2)ccc1OCCNC(=O)C(C)C [Example 60, N-(2-{4-[3-(6-Amino-5-trifluoro-methyl-pyridin-3-yl)-imidazo [1,2-b]pyridazin-6-yl]-2-methoxy-phenoxy}-ethyl)-isobutyr-amide]	36 nM	267 nM	223 nM	159 nM
Nc1ncc(-c2ccc3ncc(-c4ccc(C(=O)N5CCN(CCN6CCOCC6)CC5)c(F)c4)n3n2)cc1C(F)(F)F [Example 106, {4-[6-(6-Amino-5-trifluoro-methyl-pyridin-3-yl)-imidazo [1,2-b]pyridazin-3-yl]-2-fluoro-phenyl}-[4-(2-morpholin-4-yl-ethyl)-piperazin-1-yl]-methanone]	171 nM	> 9100 nM	291 nM	788 nM
Nc1ncc(-c2ccc3ncc(-c4ccc5c(cnn5CCN5CCOCC5)c4)n3n2)cc1C(F)(F)F [Example 131, 5-{3-[1-(2-Morpholin-4-yl-ethyl)-1H-indazol-5-yl]-imidazo [1,2-b]pyridazin-6-yl}-3-trifluoro-methyl-pyridin-2-ylamine]	26 nM	112 nM	15 nM	703 nM
Nc1ncc(-c2ccc3ncc(-c4ccc(C(=O)N5CCN(CC(=O)N6CCOCC6)CC5)cc4)n3n2)cc1C(F)(F)F [Example 144, 2-(4-{4-[6-(6-Amino-5-trifluoro-methyl-pyridin-3-yl)-imidazo [1,2-b]pyridazin-3-yl]-benzoyl}-piperazin-1-yl)-1-morpholin-4-yl-ethanone]	175 nM	533 nM	266 nM	5900 nM
COc1ccc(-c2ccc3ncc(-c4cnc(N)c(OC)n4)n3n2)cc1OC [Example 68, 5-[6-(3,4-Dimethoxy-phenyl)-imidazo [1,2-b]pyridazin-3-yl]-3-methoxy-pyrazin-2-ylamine]	9 nM	51 nM	26 nM	1300 nM
Nc1ncc(-c2ccc3ncc(-c4ccc(C(=O)NCCCN5CCOCC5)c(F)c4)n3n2)cc1C(F)(F)F [Example 100, 4-[6-(6-Amino-5-trifluoro-methyl-pyridin-3-yl)-imidazo [1,2-b]pyridazin-3-yl]-2-fluoro-N-(3-morpholin-4-yl-propyl)-benzamide]	24 nM	94 nM	26 nM	419 nM
CCN(CC)CCNC(=O)c1ccc(-c2cnc3ccc(-c4cnc(N)c(C(F)(F)F)c4)nn23)cc1F [Example 108, 4-[6-(6-Amino-5-trifluoro-methyl-pyridin-3-yl)-imidazo [1,2-b]pyridazin-3-yl]-N-(2-diethyl-amino-ethyl)-2-fluoro-benzamide]	91 nM	575 nM	142 nM	565 nM
